The text below walks through data of patent publication US7109193B2, “Tricyclic diazepines tocolytic oxytocin receptor antagonists” (Wyeth, priority 2001, dated 2006).

The term inhibition denotes the change of the read-out against control, counted positive when it falls.

The target in this experiment is T1, human vasopressin V1a receptor subtype (Homo sapiens, UniProt P37288).
T1 construct: host or cells: CHO cells (pZeoSV vector for the Thibonnier line)
T1 sequence (P37288 whole entry): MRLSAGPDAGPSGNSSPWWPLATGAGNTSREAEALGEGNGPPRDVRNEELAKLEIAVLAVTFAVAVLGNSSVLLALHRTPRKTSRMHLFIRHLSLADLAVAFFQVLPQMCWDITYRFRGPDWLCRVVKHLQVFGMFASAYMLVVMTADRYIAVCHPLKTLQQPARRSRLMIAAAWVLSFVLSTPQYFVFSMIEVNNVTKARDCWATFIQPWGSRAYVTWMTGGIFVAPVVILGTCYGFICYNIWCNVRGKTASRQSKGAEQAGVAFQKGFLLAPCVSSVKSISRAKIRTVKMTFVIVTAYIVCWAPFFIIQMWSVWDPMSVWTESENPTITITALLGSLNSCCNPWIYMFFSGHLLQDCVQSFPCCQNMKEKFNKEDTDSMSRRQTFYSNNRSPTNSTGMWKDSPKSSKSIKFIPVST
The experiment is described as follows: Vasopressin binding in Chinese Hamster Ovary cell membranes expressing human vasopressin V1a subtype receptors. The note with it: 100 nM, CHO cell membranes, [3H]Manning ligand, values without parentheses. The procedure, abridged: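 Displacement of [3H]Manning ligand (8 nM working solution) from human V1a receptors in CHO cell membranes, 25–50 μg protein per well. Incubation ran 60 min at room temperature in 50 mM Tris-HCl pH 7.4 with protease inhibitors, followed by filtration and scintillation counting. Results are given as IC50 or percent inhibition.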
Turning to `C=CCN1CCN(C(=O)c2ccc3n2Cc2ccccc2N(C(=O)c2ccc(-c4ccccc4C(F)(F)F)c(C)c2)C3)CC1` [Example 230, (4-Allyl-1-piperazinyl)(10-{[2-methyl-2′-(trifluoromethyl)[1,1′-biphenyl]-4-yl]carbonyl}-10,11-dihydro-5H-pyrrolo[2,1-c][1,4]benzodiazepin-3-yl)methanone], the inhibition at 0.1 µM was 3%.
As for `COc1cc(C(=O)N2Cc3ccc(C(=O)N4CCN(C(C)C)CC4)n3Cc3ccccc32)ccc1-c1ccccc1C` [Example 237, (4-isopropyl-1-piperazinyl){10-[(2-methoxy-2′-methyl[1,1′-biphenyl]-4-yl)carbonyl]-10,11-dihydro-5H-pyrrolo[2,1-c][1,4]benzodiazepin-3-yl}methanone], the inhibition at 0.1 µM was 39%.
Turning to `COc1ccccc1-c1ccc(C(=O)N2Cc3ccc(C(=O)N4CCN(C(C)C)CC4)n3Cc3ccccc32)cc1OC` [Example 241, {10-[(2,2′-Dimethoxy[1,1-biphenyl]4-yl)carbonyl]-10,11-dihydro-5H-pyrrolo[2,1-c][1,4]benzodiazepin-3-yl}(4-isopropyl-1-piperazinyl)methanone], the inhibition at 0.1 µM is -4%.
In the case of `COc1cc(C(=O)N2Cc3ccc(C(=O)N4CCN(CCN5CCOCC5)CC4)n3Cc3ccccc32)ccc1-c1ccccc1C` [Example 210, {10-[(2-Methoxy-2′-methyl[1,1′-biphenyl]-4-yl)carbonyl]-10,11-dihydro-5H-pyrrolo[2,1-c][1,4]benzodiazepin-3-yl}{4-[2-(4-morpholinyl)ethyl]-1-piperazinyl}methanone], the inhibition at 0.1 µM amounted to 39%.
Turning to `Cc1cc(C(=O)N2Cc3ccc(C(=O)N4CCN(C(=O)OC(C)(C)C)CC4)n3Cc3ccccc32)ccc1-c1ccccc1C(F)(F)F` [Example 6, 4-[[10,11-Dihydro-10-[[2-methyl-2′-trifluoromethyl[1,1′-biphenyl]-4-yl]carbonyl]-5H-pyrrolo[2,1-c][1,4]benzodiazepin-3-yl]carbonyl]-1-piperazine-carboxylic acid, tert-butyl ester], the inhibition at 0.1 µM amounted to 2%.
In the case of `COc1cccc(-c2ccc(C(=O)N3Cc4ccc(C(=O)N5CCN(C(C)C)CC5)n4Cc4ccccc43)cc2C)c1` [Example 235, (4-Isopropyl-1-piperazinyl){10-[(3′-methoxy-2-methyl[1,1′-biphenyl]-4-yl)carbonyl]-10,11-dihydro-5H-pyrrolo[2,1-c][1,4]benzodiazepin-3-yl}methanone], the inhibition at 0.1 µM came out at 9%.
In the case of `CN(C)CCN1CCN(C(=O)c2ccc3n2Cc2ccccc2N(C(=O)c2ccc(-c4cccc5ccccc45)cc2Cl)C3)CC1` [Example 205, {10-[2-Chloro-4-(1-naphthyl)benzoyl]-10,11-dihydro-5H-pyrrolo[2,1-c][1,4]benzodiazepin-3-yl}{4-[2-(dimethylamino)ethyl]-1-piperazinyl}methanone] it was -6%.
Consider `COc1ccccc1-c1ccc(C(=O)N2Cc3ccc(C(=O)N(C)C4CCN(C)C4)n3Cc3ccccc32)cc1` (stereo not drawn) [Example 187, 10-[(2′-Methoxy[1,1′-biphenyl]-4-yl)carbonyl]-N-methyl-N-(1-methyl-3-pyrrolidinyl)-10,11-dihydro-5H-pyrrolo[2,1-c][1,4]benzodiazepine-3-carboxamide], for which the inhibition at 0.1 µM is 81%.
For `COc1cc(-c2ccccc2C)c(Cl)cc1C(=O)N1Cc2ccc(C(=O)N3CCN(C(C)C)CC3)n2Cc2ccccc21` [Example 238, {10-[(6-Chloro-3-methoxy-2′-methyl[1,1′-biphenyl]-4-yl)carbonyl]-10,11-dihydro-5H -pyrrolo[2,1-c][1,4]benzodiazepin-3-yl}(4-isopropyl-1-piperazinyl)methanone], the inhibition at 0.1 µM is 3%.
The value for `COc1ccccc1-c1ccc(C(=O)N2Cc3ccc(C(=O)NCCC4CCCN4C)n3Cc3ccccc32)cc1C` (stereo not drawn) [Example 162, 10-[(2′-Methoxy-2-methyl[1,1′-biphenyl]-4-yl)carbonyl]-N-[2-(1-methyl-2-pyrrolidinyl)ethyl]-10,11-dihydro-5H-pyrrolo[2,1-c][1,4]benzodiazepine-3-carboxamide] was 18%; that for `Cc1ccccc1-c1ccc(C(=O)N2Cc3ccc(C(=O)N4CCN(CCN(C)C)CC4)n3Cc3ccccc32)cc1C` [Example 198, {4-[2-(Dimethylamino)ethyl]-1-piperazinyl}{10-[(2,2′-dimethyl[1,1′-biphenyl]-4-yl)carbonyl]-10,11-dihydro-5H-pyrrolo[2,1-c][1,4]benzodiazepin-3-yl}methanone] was 50%.
Regarding `COc1cccc(-c2cc(OC)c(C(=O)N3Cc4ccc(C(=O)N(C)C5CCN(C)C5)n4Cc4ccccc43)cc2Cl)c1` (stereo not drawn) [Example 191, 10-[(6-Chloro-3,3′-dimethoxy[1,1′-biphenyl]-4-yl)carbonyl]-N-methyl-N-(1-methyl-3-pyrrolidinyl)-10,11-dihydro-5H-pyrrolo[2,1-c][1,4]benzodiazepine-3-carboxamide], the inhibition at 0.1 µM amounted to 41%.
Consider `COc1cc(C(=O)N2Cc3ccc(C(=O)N(C)C4CCN(C)CC4)n3Cc3ccccc32)ccc1-c1ccccc1C` [Example 179, 10-[(2-Methoxy-2′-methyl[1,1′-biphenyl]-4-yl)carbonyl]-N-methyl-N-(1-methyl-4-piperidinyl)-10,11-dihydro-5H-pyrrolo[2,1-c][1,4]benzodiazepine-3-carboxamide], for which the inhibition at 0.1 µM stood at 73%.
As for `COc1cccc(-c2ccc(C(=O)N3Cc4ccc(C(=O)N5CCN(CCN6CCOCC6)CC5)n4Cc4ccccc43)cc2C)c1` [Example 208, {10-[(3′-Methoxy-2-methyl[1,1′-biphenyl]-4-yl)carbonyl]-10,11-dihydro-5H-pyrrolo[2,1-c][1,4]benzodiazepin-3-yl}{4-[2-(4-morpholinyl)ethyl]-1-piperazinyl}methanone], the inhibition at 0.1 µM amounted to 20%.
In the case of `C=CCN1CCN(C(=O)c2ccc3n2Cc2ccccc2N(C(=O)c2ccc(-c4cccc(OC)c4)c(C)c2)C3)CC1` [Example 223, (4-Allyl-1-piperazinyl){10-[(3′-methoxy-2-methyl[1,1′-biphenyl]-4-yl)carbonyl]-10,11-dihydro-5H-pyrrolo[2,1-c][1,4]benzodiazepin-3-yl}methanone] it was 12%; in that of `COc1ccccc1-c1ccc(C(=O)N2Cc3ccc(C(=O)N(C)C4CCN(C)C4)n3Cc3ccccc32)cc1OC` (stereo not drawn) [Example 193, 10-[(2,2′-Dimethoxy[1,1′-biphenyl]-4-yl)carbonyl]-N-methyl-N-(1-methyl-3-pyrrolidinyl)-10,11-dihydro-5H-pyrrolo[2,1-c][1,4]benzodiazepine-3-carboxamide], 41%.
`COc1ccccc1-c1ccc(C(=O)N2Cc3ccc(C(=O)N4CCN(CCN5CCOCC5)CC4)n3Cc3ccccc32)cc1OC` [Example 214, {10-[(2,2′-Dimethoxy[1,1′-biphenyl]-4-yl)carbonyl]-10,11-dihydro-5H-pyrrolo[2,1-c][1,4]benzodiazepin-3-yl}{4-[2-(4-morpholinyl)ethyl]-1-piperazinyl}methanone]: the inhibition at 0.1 µM was found to be 8%.
Turning to `Cc1ccccc1-c1ccc(C(=O)N2Cc3ccc(C(=O)NCCC4CCCN4C)n3Cc3ccccc32)cc1C` (stereo not drawn) [Example 163, 10-[(2,2′-Dimethyl[1,1′-biphenyl]-4-yl)carbonyl]-N-[2-(1-methyl-2-pyrrolidinyl)ethyl]-10,11-dihydro-5H-pyrrolo[2,1-c][1,4]benzodiazepine-3-carboxamide], the inhibition at 0.1 µM worked out at 43%.
In the case of `C=CCN1CCN(C(=O)c2ccc3n2Cc2ccccc2N(C(=O)c2cc(Cl)c(-c4cccc(OC)c4)cc2OC)C3)CC1` [Example 226, (4-Allyl-1-piperazinyl){10-[(6-chloro-3,3′-dimethoxy[1,1′-biphenyl]-4-yl)carbonyl]-10,11-dihydro-5H-pyrrolo[2,1-c][1,4]benzodiazepin-3-yl}methanone], the inhibition at 0.1 µM came to 3%.
Turning to `COc1cc(-c2ccccc2C)c(Cl)cc1C(=O)N1Cc2ccc(C(=O)N3CCN(CCN4CCOCC4)CC3)n2Cc2ccccc21` [Example 217, {10-[(6-Chloro-3-methoxy-2′-methyl[1,1′-biphenyl]-4-yl)carbonyl]-10,11-dihydro-5H -pyrrolo[2,1-c][1,4]benzodiazepin-3-yl}{4-[2-(4-morpholinyl)ethyl]-1-piperazinyl}methanone], the inhibition at 0.1 µM came out at 21%.
`COc1cccc(-c2cc(OC)c(C(=O)N3Cc4ccc(C(=O)N5CCN(C(C)C)CC5)n4Cc4ccccc43)cc2Cl)c1` [Example 239, {10-[(6-Chloro-3,3′-dimethoxy[1,1′-biphenyl]-4-yl)carbonyl]-10,11-dihydro-5H-pyrrolo[2,1-c][1,4]benzodiazepin-3-yl}(4-isopropyl-1-piperazinyl)methanone]: the inhibition at 0.1 µM worked out at 2%.
Regarding `Cc1ccccc1-c1ccc(C(=O)N2Cc3ccc(C(=O)N(C)C4CCN(C)CC4)n3Cc3ccccc32)cc1` [Example 178, N-Methyl-10-[(2′-methyl[1,1′-biphenyl]-4-yl)carbonyl]-N-(1-methyl-4-piperidinyl)-10,11-dihydro-5H-pyrrolo[2,1-c][1,4]benzodiazepine-3-carboxamide], the inhibition at 0.1 µM amounted to 79%.
Turning to `C=CCN1CCN(C(=O)c2ccc3n2Cc2ccccc2N(C(=O)c2ccc(-c4ccccc4OC)c(OC)c2)C3)CC1` [Example 227, (4-Allyl-1-piperazinyl){10-[(2,2′-dimethoxy[1,1′-biphenyl]-4-yl)carbonyl]-10,11-dihydro-5H -pyrrolo[2,1-c][1,4]benzodiazepin-3-yl}methanone], the inhibition at 0.1 µM was determined as 2%.
On to `C=CCN1CCN(C(=O)c2ccc3n2Cc2ccccc2N(C(=O)c2ccc(-c4ccccc4C)cc2)C3)CC1` [Example 224, (4-Allyl-1-piperazinyl){10-[(2′-methyl[1,1′-biphenyl]-4-yl)carbonyl]-10,11-dihydro-5H -pyrrolo[2,1-c][1,4]benzodiazepin-3-yl}methanone], for which the inhibition at 0.1 µM turned out to be 1%.
